Assay results: US9708336B2, “Metallo-beta-lactamase inhibitors” (priority 2014, dated 2017)
Where two headings read alike, the source gives them in different places.

What was measured:
[1] = molecular target: NDM-1 (Klebsiella pneumoniae, UniProt C7C422); assay: biochemical; assay type: biochemical; conditions: read-out: NDM-1 IC50
[2] = molecular target: IMP-1 (Serratia marcescens, UniProt P52699); assay: biochemical; assay type: biochemical; conditions: read-out: IMP-1 IC50
[3] = molecular target: VIM-1 (Pseudomonas aeruginosa (strain ATCC 15692 / DSM 22644 / CIP 104116 / JCM 14847 / LMG 12228 / 1C / PRS 101 / PAO1), UniProt A0A0F7KYQ8); assay: Enzyme activity: determination of IC50, fluorescence assay with CCF2-FA substrate (VIM-1); assay type: biochemical
[4] = tested on: Escherichia coli expressing NDM-1 (CLB30016); assay: Antibiotic potentiation activity: synergistic concentration (MITC95) with imipenem, OD600 growth; assay type: cell-based; conditions: for Escherichia coli MITC95: 95% growth inhibition; for Escherichia coli expressing NDM-1 (CLB 30016) MITC95: concentration giving 95% inhibition of bacterial growth
Experimental: (§1) Antibiotic Potentiation Activity: Determination of Synergistic Concentration
(§2) The bacterial strains tested included the clinical strains Escherichia coli expressing NDM-1 (CLB30005, CLB30016), Serratia marcescens expressing IMP-1 (CL5741), and Klebsiella pneumoniae expressing VIM-1 (IHMA599644) Inhibitor activity was measured in the presence and absence of imipenem in a 384-well microplate.
(§3) The clinical strains CLB30016, CL5741 and IHMA599644 were grown on trypticase soy agar containing 5% sheep's blood. The clinical strain CLB30005 was grown on Mueller Hinton broth agar containing 8 ug/ml imipenem. The bacteria on agar plates were incubated at 35° C. with humidity overnight. The following day, individual colonies from each clinical strain were picked and resuspended in 5 ml saline to attain an OD600 of 0.14, 0.11, 0.15 and 0.13, for CLB30005, CLB30016, CL5741 and IHMA599644, respectively. These were further diluted 1:100 into 1.1×CAMHB and used to inoculate the test wells as described below.
(§4) Imipenem in 10 mM 3-(N-morpholino)propanesulfonic acid (MOPS, pH 7) was stored in single use aliquots at −80° C. […] On the day of the assay, 4 μl of antibiotic was added to 45 ul of bacteria followed by 1 μl of test compound and mixed by pipetting and with an orbital shaker. The concentration of antibiotic used in the assay was 4 μg/ml, or optionally 1 μg/ml. Microplates were covered and incubated at 35° C. for 22 hours to 24 hours. At the end of the incubation, absorbance was determined using a spectrophotometer.

[5] = tested on: Klebsiella pneumoniae expressing VIM-1 (IHMA599644); assay: as above; assay type: cell-based; conditions: for Klebsiella pneumoniae MITC95: 95% growth inhibition; for Klebsiella pneumoniae expressing VIM-1 (IHMA 599644) MITC95: concentration giving 95% inhibition of bacterial growth
Experimental: as §1, §2, §3, §4

[6] = tested on: Serratia marcescens expressing IMP-1 (CL5741); assay: as above; assay type: cell-based; conditions: for Serratia marcescens MITC95: 95% growth inhibition; for Serratia marcescens expressing IMP-1 (CL5741) MITC95: concentration giving 95% inhibition of bacterial growth
Experimental: as §1, §2, §3, §4

[7] = NDM-1 enzyme, CCF2-FA fluorescence assay
[8] = IMP-1 enzyme, CCF2-FA fluorescence assay
[9] = VIM-1 enzyme, CCF2-FA fluorescence assay, read-out: VIM-1 IC50
[10] = Escherichia coli expressing NDM-1 (CLB30016)
[11] = Klebsiella pneumoniae expressing VIM-1 (IHMA599644)
[12] = Serratia marcescens expressing IMP-1 (CL5741)
[13] = IMP-1 enzyme, CCF2-FA substrate
[14] = Klebsiella pneumoniae IHMA599644 (VIM-1)
[15] = Serratia marcescens CL5741 (IMP-1)
[16] = fluorescence assay with CCF2-FA substrate
[17] = fluorescence assay with CCF2-FA substrate, read-out: VIM-1 IC50
[18] = VIM-1 IC50, fluorescence assay with CCF2-FA substrate
[19] = VIM-1 enzyme, CCF2-FA substrate, read-out: VIM-1 IC50

Sequence of NDM-1 (C7C422 whole entry, looked up, species assumed): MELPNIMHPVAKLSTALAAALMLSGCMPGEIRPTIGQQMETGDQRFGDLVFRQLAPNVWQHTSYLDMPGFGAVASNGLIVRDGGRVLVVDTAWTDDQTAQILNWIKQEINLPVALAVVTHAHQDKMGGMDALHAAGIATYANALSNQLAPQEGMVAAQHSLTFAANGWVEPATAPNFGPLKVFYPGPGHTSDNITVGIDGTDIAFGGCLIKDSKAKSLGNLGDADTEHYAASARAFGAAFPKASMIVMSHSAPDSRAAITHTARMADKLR
Sequence of IMP-1 (P52699 whole entry, looked up): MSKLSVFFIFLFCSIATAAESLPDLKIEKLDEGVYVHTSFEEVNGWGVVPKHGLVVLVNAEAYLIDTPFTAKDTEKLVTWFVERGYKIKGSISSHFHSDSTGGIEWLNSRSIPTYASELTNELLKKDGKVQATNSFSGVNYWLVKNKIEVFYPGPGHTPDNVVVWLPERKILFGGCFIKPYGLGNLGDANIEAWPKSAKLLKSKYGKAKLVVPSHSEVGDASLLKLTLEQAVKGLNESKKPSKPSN

SMILES	Escherichia coli MITC95 ([4]; (CLB30016, NDM-1))	Klebsiella pneumoniae MITC95 [5, 14]	Serratia marcescens MITC95 [6, 15]	IC50 [1, 16]	IC50 [2, 16]	Escherichia coli expressing NDM-1 (CLB 30016) MITC95 [4]	Klebsiella pneumoniae expressing VIM-1 (IHMA 599644) MITC95 [5]	Serratia marcescens expressing IMP-1 (CL5741) MITC95 [6]	IC50 [3, 19]	also measured
Cl.Cl.NC1CNCCC1(O)c1ccc(-c2cccc(S(N)(=O)=O)c2-c2nn[nH]n2)cc1 (racemic) [Example 282, 4′-(3-amino-4-hydroxypiperidin-4-yl)-2-(2H-tetrazol-5-yl)-[1,1′-biphenyl]-3-sulfonamide dihydrochloride (trans, racemate)]										IC50 [1, 7]: 21.5 nM; IC50 [2, 8]: 266 nM; IC50 [3, 9]: 183 nM; Escherichia coli MITC95 [4, 10]: 0.7813 µM; Klebsiella pneumoniae MITC95 [5, 11]: 12.5 µM; Serratia marcescens MITC95 [6, 12]: 1.563 µM
CCC(CO)NCc1ccc(-c2cccc(S(N)(=O)=O)c2-c2nnn[nH]2)cc1 (stereo in doubt) [Example 345, 4′-({[(1S)-1-(hydroxymethyl)propyl]amino}methyl)-2-(1H-tetrazol-5-yl)biphenyl-3-sulfonamide]										IC50 [1, 7]: 18.5 nM; IC50 [2, 8]: 213 nM; IC50 [3, 9]: 269 nM; Escherichia coli MITC95 [4, 10]: 1.563 µM; Klebsiella pneumoniae MITC95 [5, 11]: 50 µM; Serratia marcescens MITC95 [6, 12]: 4.688 µM
NS(=O)(=O)c1cccc(-c2ccc(CN3CCC(CO)C3)cc2)c1-c1nnn[nH]1 (stereo in doubt) [Example 391, 4′-{[(3S)-3-(hydroxymethyl)pyrrolidin-1-yl]methyl}-2-(1H-tetrazol-5-yl)biphenyl-3-sulfonamide]										IC50 [1, 7]: 18.9 nM; IC50 [2, 8]: 348 nM; IC50 ([3]; VIM-1 IC50, VIM-1 enzyme, CCF2-FA fluorescence assay): 401 nM; Escherichia coli MITC95 [4, 10]: 1.172 µM; Klebsiella pneumoniae MITC95 [5, 11]: 50 µM; Serratia marcescens MITC95 [6, 12]: 2.344 µM
NS(=O)(=O)c1cccc(-c2ccc(N3CCC3CO)nc2)c1-c1nnn[nH]1 (stereo in doubt) [Example 636, 3-[6-[(2S)-2-(hydroxymethyl)azetidin-1-yl]-3-pyridyl]-2-(1H-tetrazol-5-yl)benzenesulfonamide]	0.3906 µM	>200 µM	4.688 µM							IC50 ([1]; NDM-1 enzyme, CCF2-FA substrate): 1.54 nM; IC50 [2, 13]: 37.2 nM; IC50 ([3]; VIM-1 IC50, VIM-1 enzyme, CCF2-FA substrate): 88.9 nM
N=C(N)N1CCC(c2ccc(-c3cccc(S(N)(=O)=O)c3-c3nn[nH]n3)cc2)CC1 [Example 32, 4-(3′-Sulfamoyl-2′-(2H-tetrazol-5-yl)-[1,1′-biphenyl]-4-yl)piperidine-1-carboximidamide]				3.46 nM	18 nM	0.5859 µM	25 µM	0.7813 µM		IC50 [3, 17]: 77.8 nM
C[N+]1(C)CCC(c2ccc(-c3cccc(S(N)(=O)=O)c3-c3nnn[nH]3)cc2)CC1.O=C([O-])C(F)(F)F [Example 33, 1,1-dimethyl-4-(3′-sulfamoyl-2′-(1H-tetrazol-5-yl)-[1,1′-biphenyl]-4-yl)piperidin-1-ium 2,2,2-trifluoroacetate]				16.6 nM	70.6 nM	1.172 µM	100 µM	1.172 µM		IC50 [3, 17]: 832 nM
Cc1nnc2ccc(-c3cccc(S(N)(=O)=O)c3-c3nnn[nH]3)cn12 [Example 113, 3-(3-methyl-[1,2,4]triazolo[4,3-a]pyridin-6-yl)-2-(1H-tetrazol-5-yl)benzenesulfonamide]				15.4 nM	14800 nM	3.125 µM	50 µM	200 µM		IC50 [3, 17]: 313 nM
Cc1cc2nccn2cc1-c1cccc(S(N)(=O)=O)c1-c1nnn[nH]1 [Example 115, 3-(7-methylimidazo[1,2-a]pyridin-6-yl)-2-(1H-tetrazol-5-yl)benzenesulfonamide]				7.81 nM	544 nM	0.25 µM	37.5 µM	18.75 µM		IC50 [3, 18]: 54.4 nM
NS(=O)(=O)c1cccc(-c2ccc(-n3cccn3)nc2)c1-c1nnn[nH]1 [Example 117, 3-(6-(1H-pyrazol-1-yl)pyridin-3-yl)-2-(1H-tetrazol-5-yl)benzenesulfonamide]				5.18 nM	134 nM	1.172 µM	100 µM	6.25 µM		IC50 [3, 17]: 135 nM
NS(=O)(=O)c1cccc(-c2cccc(S(N)(=O)=O)c2-c2nnn[nH]2)c1 [Example 118, 2-(1H-tetrazol-5-yl)-[1,1′-biphenyl]-3,3′-disulfonamide]				44.2 nM	1330 nM	0.7813 µM	50 µM	18.75 µM		IC50 [3, 17]: 492 nM
NS(=O)(=O)c1cccc(-c2cccc(CO)c2)c1-c1nnn[nH]1 [Example 119, 3′-(hydroxymethyl)-2-(1H-tetrazol-5-yl)-[1,1′-biphenyl]-3-sulfonamide]				16.2 nM	548 nM	1.563 µM	50 µM	18.75 µM		IC50 [3, 18]: 261 nM
Cc1nc(N)ccc1-c1ccc(C(F)(F)F)c(S(N)(=O)=O)c1-c1nn[nH]n1 [Example 555, 3-(6-amino-2-methyl-3-pyridyl)-2-(2H-tetrazol-5-yl)-6-(trifluoromethyl)benzenesulfonamide]	0.5859 µM	3.125 µM	6.25 µM						0.177 nM	
Cc1cc(N)ncc1-c1ccc(C(F)(F)F)c(S(N)(=O)=O)c1-c1nn[nH]n1 [Example 557, 3-(6-amino-4-methyl-3-pyridyl)-2-(2H-tetrazol-5-yl)-6-(trifluoromethyl)benzenesulfonamide]	0.3906 µM	6.25 µM	6.25 µM						0.656 nM	
NS(=O)(=O)c1c(CCC2CCNCC2)ccc(-c2ccc(C3CNC3)cc2)c1-c1nnn[nH]1 [Example 598, 3-[4-(azetidin-3-yl)phenyl]-6-[2-(4-piperidyl)ethyl]-2-(1H-tetrazol-5-yl)benzenesulfonamide]	1.563 µM	1.563 µM	3.125 µM						4.41 nM	
C[N+]1(C)CCC(Cc2ccc(-c3ccc(C4CNC4)cc3)c(-c3nn[nH]n3)c2S(N)(=O)=O)CC1 [Example 605, 3-[4-(azetidin-3-yl)phenyl]-6-[(1,1-dimethylpiperidin-1-ium-4-yl)methyl]-2-(2H-tetrazol-5-yl)benzenesulfonamide]	6.25 µM	3.125 µM	6.25 µM						3.89 nM	IC50 [2, 13]: 160 nM
Cn1cncc1CN1CCC(c2ccc(-c3cccc(S(N)(=O)=O)c3-c3nnn[nH]3)cc2)CC1 [Example 620, 3-[4-[1-[(3-methylimidazol-4-yl)methyl]-4-piperidyl]phenyl]-2-(1H-tetrazol-5-yl)benzenesulfonamide]	7.813 µM	>200 µM	2.344 µM						1030 nM	
Cn1ccnc1CN1CCC(c2ccc(-c3cccc(S(N)(=O)=O)c3-c3nnn[nH]3)cc2)CC1 [Example 621, 3-[4-[1-[(1-methylimidazol-2-yl)methyl]-4-piperidyl]phenyl]-2-(1H-tetrazol-5-yl)benzenesulfonamide]	3.906 µM	>200 µM	1.563 µM						508 nM	
